Results taken from patent US7033829B2, “Method to inhibit cell growth using oligonucleotides” (Trustees of Boston University, priority 2000, dated 2006).
Oligonucleotides are written 5' to 3', each unit as a sugar letter and its base; * is a phosphorothioate linkage, no mark a phosphodiester; rarer units and linkages stand in square brackets, end groups in braces. Plain capitals give the bases only. d = 2'-deoxy (DNA); {P} = phosphate

Tests used:
Jurkat cells = test: TUNEL assay in Jurkat cells; assay type: cell-based, human; conditions: 40 μM; 72 hours
Experimental: Cells were plated at a density of 180,000 cells/ml in RPMI 1640 medium supplemented with 3% FBS. Cells were treated with 40 μM of either of the oligonucleotides for 72 hours. Cells were then collected, washed and fixed for 30 minutes in 4% paraformaldehyde and then permeabilized with 0.1% Triton X-100 for 2 minutes. The TUNEL assay was carried out with components and instructions of the In Situ Cell Death Detection Kit using fluorescein-labeled dUTP from Boehringer Mannheim. TUNEL-positive cells were detected by FACS analysis and confocal microscopy. […] Uptake of the oligonucleotides was assessed in 5–10 μm sections with a Carl Zeiss LSM 510 confocal laser microscope. […] Fluorescence was measured on the FL-1 channel. […] Antibody Ab-6 (DO-1 clone, Oncogene Research Products, Cambridge, Mass.) detected p53; antibody KH95 (Santa Cruz Biotechnology, Inc., Santa Cruz, Calif.) detected E2F1; antibody Ab-4 (Oncogene Research products) detected p73. Phospho-p53 (serine 15) was detected using the #9284 polyclonal antibody and phospho-p95/Nbs1 (serine 343) was detected by a phospho-p95/Nbs1-specific polyclonal antibody, both antibodies from Cell Signaling Technology (Beverly, Mass.). p95/Nbs1 antibody (#NB-100-143, Novus Biologicals, Littleton, Colo.) and an actin antibody (I-19, Santa Cruz Biotechnology, Santa Cruz, Calif.) were also used. […]

[1] = test system: human melanoma line MM-AN; test: FACS analysis of MM-AN melanoma cells; assay type: cell-based; conditions: 40 μM
Experimental: Proteins were analyzed by denaturing polyacrylamide gel electrophoresis (SDS-PAGE), using 10% polyacrylamide, and western blot analysis was done with an E2F1-specific monoclonal antibody (KH95 Santa Cruz Biotechnology, Santa Cruz, Calif.), and p73 analyzed using a polyclonal antibody (AB-4 from Oncogene Research Products, San Diego, Calif.). […] In order to determine the contribution of p73 to cell death, MM-AN melanoma cells were stably transfected with a dominant negative p73 (p73DN) (Irwin et al., Nature 402:645–648) construct or empty vector as a control (p73^DN-containing vector a gift from Dr. William Kaelin, Dana Farber Institute, Boston) and paired cultures were supplemented with 40 μM 11mer-1 or diluent alone, then harvested at 72 hours for FACS analysis. […] The above-mentioned differentiation markers are expressed in normal human melanocytes. It appears that the loss of expression of these antigens is a mechanism that a subset of human melanomas uses to escape immunosurveillance defenses. Several peptides from these antigens are targets of tumor infiltrating cytotoxic lymphocytes. Encouraging results have been obtained in vivo with different vaccination strategies using antigenic peptides from the above antigens.

[2] = test system: Normal human neonatal fibroblasts; test: Cell growth of normal neonatal fibroblasts; assay type: cell-based; conditions: 100 μM
Experimental: Normal human neonatal fibroblasts were plated in Falcon P35 culture dishes at a density of 9×10^4 cells/dish. The culture medium was DME+10% calf serum, 2 ml per plate. One day after plating, cultures were supplemented with either 100 μM T2 in DME or 100 μM A2 in DME, or water (control). Two plates were collected and counted before the additions to give a starting, or “day 0,” reading. Duplicate plates of each condition were harvested through five days after addition of the supplements and cell number determined. All cell counts were done by Coulter™ Counter.
In a second experiment, normal human neonatal fibroblasts were plated and cultured, as described above in Example 1 for SCC12F cells. Cultures were supplemented with either 100 μM T2 or water (control), and cells were harvested for cell counts. The cell yield in fibroblast cultures treated with T2 was reduced by 40% compared to that of paired control cultures after three days (FIG. 8). This corresponds to 4 population doublings in this time for control cells, compared with 3.6 doublings for T2-treated cells.

[3] = test system: Primary newborn fibroblasts; test: Protection of fibroblasts against H2O2; assay type: cell-based; conditions: for cell yields higher compared to diluent pre-treated control: 10 μM 3 days, within 72 hours
Experimental: Primary newborn fibroblasts were treated for 3 days with 10 μM pTpT or diluent as control and then treated with 5×10^−5 or 5×10^−4 M H2O2. Within 72 hours of H2O2 exposure, cell yields of pTpT pre-treated cultures were 45±1% and 139±5% higher, respectively, compared to diluent pre-treated control samples. 72 hours after exposure of the […] H2O2 dose, only 9.6±2.4% of the diluent pre-treated cells survived.

Substance: pGTTAGGGTTAG (DNA {P}-dGdTdTdAdGdGdGdTdTdAdG) [SEQ ID NO: 5]
- TUNEL fluorescence (FACS, confocal microscopy) (Jurkat cells): an increase in fluorescence due to end-label incorporation
- cell cycle [1]: first entered an S-phase arrest
- apoptosis rate of cells expressing p73^DN ([1]; 72 hours): at half the rate of control cells
- apoptosis (sub-G0/G1 DNA content) ([1]; by 72 hours): a substantial portion of the cells were undergoing apoptosis

Substance: thymidine dinucleotide [pTpT]
- cell yield reduced compared to paired control cultures ([2]; after three days): 40%
- population doublings ([2]; three days (control 4)): 3.6
- cell yields higher compared to diluent pre-treated control ([3]; 5×10^−4 M H2O2): 139±5%
- cell yields higher compared to diluent pre-treated control ([3]; 5×10^−5 M H2O2): 45±1%
- increase of cell survival ([3]; 5×10^−4 M H2O2): 2–9 fold
- protection of cell survival ([3]; low H2O2 dose): complete protection
